Laboratory results reported in US11013698B2, “Combinations of LSD1 inhibitors for the treatment of hematological malignancies” (Oryzon Genomics S.A., priority 2016, dated 2021).

What was measured:
Format in all cases: cell-based
[1] = test system: HL-60; assay: Viability assay (96 hours), Alamar Blue; details: HL-60, 96 hours
Method: (§1) AML cell lines were maintained in RPMI 10% FBS medium at 37° C. in a humidified incubator with controlled 5% CO2 atmosphere. Cell freezing and thawing was performed following recommendation from ATCC. Genetic profiling of the cell lines used is available in table 2. Cells were seeded at the optimal density (to guarantee linear growth during the treatment), as previously determined (4000 cells/well, except 16000 cells/well in the case of KASUMI-1 cells), in 96-well plates with 50 μL of medium. Three wells were reserved for each experimental condition; medium-only and vehicle-treated controls were also added for background correction and normalization respectively. […] Alamar Blue® is a cell viability indicator that uses the natural reducing power of living cells to convert resazurin to the fluorescent molecule, resorufin^43.

[2] = test system: KASUMI-1; assay: Viability assay (96 hours), Alamar Blue; details: KASUMI-1, 96 hours
Method: as §1

[3] = test system: MOLM-13; assay: Viability assay (96 hours), Alamar Blue; details: MOLM-13, 96 hours
Method: as §1

[4] = test system: MV(4;11); assay: Viability assay (96 hours), Alamar Blue; details: MV(4;11), 96 hours
Method: as §1

[5] = test system: OCI-AML3; assay: Viability assay (96 hours), Alamar Blue; details: OCI-AML3, 96 hours
Method: as §1

[6] = test system: THP-1; assay: Viability assay (96 hours), Alamar Blue; details: THP-1, 96 hours
Method: as §1

[7] = test system: MOLT-4 cells; assay: Viability assay (10 days), Alamar Blue; details: MOLT4, 10 days
Method: MOLT4 cells were maintained in RPMI 10% FBS medium at 37° C. in a humidified incubator with controlled 5% CO2 atmosphere. Cell freezing and thawing was performed following recommendation from ATCC. Genetic profiling of the cell lines used is available in table 4.
Three wells were reserved for each experimental condition; medium-only and vehicle-treated controls were also added for background correction and normalization respectively. After seeding, 50 μL of medium containing 8 1:3 serial dilution of ORY-1001 were added to the cells (range 0.015-100 nM). Cells were then incubated for 6 days at 37° C. in a controlled 5% CO2 atmosphere. On the sixth day, 100 μL of medium with serial dilutions of ORY-1001 (as described previously) or vehicle were added to the cells. Medium without compound (100μ) was added to background control.
After 4 additional days of incubation, cell viability was evaluated using the Alamar Blue® staining as detailed in the section 1.1.2.

[8] = test system: MOLT-4 cells; assay: Viability after shorter treatment (96 hours); details: MOLT-4, 96 hours treatment (data not shown)

- EC50 (viability) ([1]; single agent): sub-nanomolar range
- EC50 (viability) ([3]; single agent): sub-nanomolar range
- EC50 (viability) ([5]; single agent): sub-nanomolar range
- EC50 (viability) ([6]; single agent): sub-nanomolar range
- EC50 (viability) [7]: sub-nanomolar range
SMILES: N[C@H]1CC[C@H](N[C@@H]2C[C@H]2c2ccccc2)CC1 [ORY-1001, (trans)-N1-((1R,2S)-2-phenylcyclopropyl)cyclohexane-1,4-diamine]
- Reduction of viability (compared to vehicle controls) ([1]; serial 1:3 dilution): greater than 20%
- Reduction of viability (compared to vehicle controls) ([2]; serial 1:3 dilution): greater than 20%
- EC50 (viability) ([2]; single agent): sub-nanomolar range
- Reduction of viability (compared to vehicle controls) ([3]; serial 1:3 dilution): greater than 20%
- Reduction of viability (compared to vehicle controls) ([4]; serial 1:3 dilution): greater than 20%
- EC50 (viability) ([4]; single agent): sub-nanomolar range
- Reduction of viability (compared to vehicle controls) ([5]; serial 1:3 dilution): greater than 20%
- Reduction of viability (compared to vehicle controls) ([6]; serial 1:3 dilution): greater than 20%
- cytotoxicity at 0.1 µM ([7]; Homo sapiens, MOLT-4, 240 h, highest ORY-1001 concentration 100 nM, read-out: Viability reduction (compared to vehicles)): > 20%
- Effect on viability [8]: not affecting the viability
